The values that follow come from patent publication US20240124412A1, “IKAROS ZINC FINGER FAMILY DEGRADERS AND USES THEREOF” (Gilead Sciences, Inc., priority 2021, published 2024).

For test [1], the target named is T1, IKZF1 (Homo sapiens, UniProt Q13422+Q96SW2).
T1 construct: expressed in transfected cells
As to the kind of experiment: HiBiT protein tagging assay, in vitro IKZF1 degradation (HEK293). The class given is cell-based. The settings on record: HEK293, 18-24 hr incubation, normalized to DMSO control; for Dmax: read-out: IKZF1 Dmax (maximum degradation at the highest concentration tested); for DC50: read-out: IKZF1 EC50. The protocol:
(§1) In vitro degradation of IKZF1 and IKZF2 was measured using HiBiT protein tagging and detection technology (Promega).
(§2) HiBiT technology (Promega) was used to develop the quantitative assays to measure the cellular IKZFs level by tagging an 11 amino acid HiBit peptides VSGWRLFKKIS (SEQ ID NO:1) to the protein of interest. Reporter plasmids were generated by fusing a linker sequence (GSSGGSSG; SEQ ID NO:2) followed by the HiBiT tag at the C terminus of IKZF1 and IKZF2. The fusion fragments were subsequently cloned into pcDNA5 pcDNA™5/FRT/TO plasmids (Thermo Fisher, cat #V652020) downstream of the Tetracycline operator. The resulting plasmids were co-transfected with pOG44 Flp-Recombinase Expression Vector (Thermo Fisher, cat #V600520) into Flp-In™ T-REx HEK293 line (Thermo Fisher, cat #R78077) and a stable cell pool was selected by adding 100 μg/ml of Hygromycin (Thermo Fisher, cat #10687010). The reporter cell enabled Tet-On inducible reporter expression from a single copy of the integrated gene.
(§3) On Day 1, Cells were grown to ˜80% confluency in TC medium (DMEM Glutamax (Gibco10569), 10% Tet free FBS (Takara 631106), and PenStrep Glutamin (Gibco 10378)) in tissue culture flasks. Doxycycline was then added to a final concentration of 1 μg/ml to induce reporter expression at 37° C. overnight.
(§4) On Day 2, 125 nL of serially-diluted solution of testing compounds were dispensed into 384-well white solid assay plates via ECHO acoustic liquid handler. Cells were lifted by 0.25% Trypsin (Gibco 25200) then pelleted by centrifugation (Beckman Avanti J-E) at 500×g for 5 min. Cell pellets were resuspended in TC medium at the concentration of 3e5/mL and 25 μL of cell suspension were added into each well of compound-spotted plates. The plates were returned to a 37° C. incubator overnight (18-24 hr).
(§5) On Day 3, assay plates were removed from the TC incubator and 25 μL of Nano-Glo lytic detection system (Promega, cat #N3030) was added to each well. Plates were incubated at r.t. for 3 min with shaking, and luminescence was read using an Envision reader (Perkin Elmer).
(§6) All raw data was normalized to DMSO control (final concentration: 0.5%) wells as POC and plotted out for EC50 and Dmax (Maximum degradation at the highest concentration tested in the assay).
Background: With HiBiT, luminescence reflects the tagged protein that the partner subunit can reach.

Test [2] has as its target T2, IKZF2 (Homo sapiens, UniProt Q96SW2+Q9UKS7).
T2 construct: expressed in transfected cells
As to the kind of experiment: HiBiT protein tagging assay, in vitro IKZF2 degradation (HEK293). The settings on record: HEK293, 18-24 hr incubation, normalized to DMSO control; for Dmax: HEK293, HiBiT assay, read-out: IKZF2 Dmax (maximum degradation at the highest concentration tested); for DC50: read-out: IKZF2 EC50. The class given is cell-based. The method, then:
as §1, §2, §3, §4, §5, §6

SMILES strings stand for the structures. A value given as a limit tells only on which side of the number the result lay.

T1 sequence (Q13422 whole entry): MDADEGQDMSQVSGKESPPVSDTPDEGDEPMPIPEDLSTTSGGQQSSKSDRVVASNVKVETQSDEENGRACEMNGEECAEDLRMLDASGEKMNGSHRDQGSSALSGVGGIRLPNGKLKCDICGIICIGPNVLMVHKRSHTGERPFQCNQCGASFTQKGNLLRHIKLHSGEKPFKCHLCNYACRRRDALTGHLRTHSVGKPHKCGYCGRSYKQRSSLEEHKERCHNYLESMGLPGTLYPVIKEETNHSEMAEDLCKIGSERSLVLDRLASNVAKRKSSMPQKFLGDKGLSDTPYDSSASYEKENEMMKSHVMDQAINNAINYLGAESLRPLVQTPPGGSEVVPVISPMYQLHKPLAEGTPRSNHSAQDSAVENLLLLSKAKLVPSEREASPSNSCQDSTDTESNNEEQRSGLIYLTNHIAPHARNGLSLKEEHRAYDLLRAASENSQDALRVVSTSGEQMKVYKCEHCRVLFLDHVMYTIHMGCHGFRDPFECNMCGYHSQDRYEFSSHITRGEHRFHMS
T1 sequence (Q96SW2 whole entry): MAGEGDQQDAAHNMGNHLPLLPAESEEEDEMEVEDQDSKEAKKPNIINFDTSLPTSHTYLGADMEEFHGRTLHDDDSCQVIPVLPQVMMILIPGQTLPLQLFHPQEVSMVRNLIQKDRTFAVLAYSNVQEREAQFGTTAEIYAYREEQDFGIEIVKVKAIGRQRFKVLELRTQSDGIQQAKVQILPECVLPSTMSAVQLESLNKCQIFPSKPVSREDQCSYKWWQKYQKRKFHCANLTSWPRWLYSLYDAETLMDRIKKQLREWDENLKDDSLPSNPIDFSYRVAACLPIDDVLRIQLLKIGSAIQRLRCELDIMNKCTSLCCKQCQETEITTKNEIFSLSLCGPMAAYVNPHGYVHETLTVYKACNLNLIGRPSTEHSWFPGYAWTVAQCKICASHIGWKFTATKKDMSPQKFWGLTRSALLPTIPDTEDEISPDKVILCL
T1 sequence (Q16531 whole entry partner): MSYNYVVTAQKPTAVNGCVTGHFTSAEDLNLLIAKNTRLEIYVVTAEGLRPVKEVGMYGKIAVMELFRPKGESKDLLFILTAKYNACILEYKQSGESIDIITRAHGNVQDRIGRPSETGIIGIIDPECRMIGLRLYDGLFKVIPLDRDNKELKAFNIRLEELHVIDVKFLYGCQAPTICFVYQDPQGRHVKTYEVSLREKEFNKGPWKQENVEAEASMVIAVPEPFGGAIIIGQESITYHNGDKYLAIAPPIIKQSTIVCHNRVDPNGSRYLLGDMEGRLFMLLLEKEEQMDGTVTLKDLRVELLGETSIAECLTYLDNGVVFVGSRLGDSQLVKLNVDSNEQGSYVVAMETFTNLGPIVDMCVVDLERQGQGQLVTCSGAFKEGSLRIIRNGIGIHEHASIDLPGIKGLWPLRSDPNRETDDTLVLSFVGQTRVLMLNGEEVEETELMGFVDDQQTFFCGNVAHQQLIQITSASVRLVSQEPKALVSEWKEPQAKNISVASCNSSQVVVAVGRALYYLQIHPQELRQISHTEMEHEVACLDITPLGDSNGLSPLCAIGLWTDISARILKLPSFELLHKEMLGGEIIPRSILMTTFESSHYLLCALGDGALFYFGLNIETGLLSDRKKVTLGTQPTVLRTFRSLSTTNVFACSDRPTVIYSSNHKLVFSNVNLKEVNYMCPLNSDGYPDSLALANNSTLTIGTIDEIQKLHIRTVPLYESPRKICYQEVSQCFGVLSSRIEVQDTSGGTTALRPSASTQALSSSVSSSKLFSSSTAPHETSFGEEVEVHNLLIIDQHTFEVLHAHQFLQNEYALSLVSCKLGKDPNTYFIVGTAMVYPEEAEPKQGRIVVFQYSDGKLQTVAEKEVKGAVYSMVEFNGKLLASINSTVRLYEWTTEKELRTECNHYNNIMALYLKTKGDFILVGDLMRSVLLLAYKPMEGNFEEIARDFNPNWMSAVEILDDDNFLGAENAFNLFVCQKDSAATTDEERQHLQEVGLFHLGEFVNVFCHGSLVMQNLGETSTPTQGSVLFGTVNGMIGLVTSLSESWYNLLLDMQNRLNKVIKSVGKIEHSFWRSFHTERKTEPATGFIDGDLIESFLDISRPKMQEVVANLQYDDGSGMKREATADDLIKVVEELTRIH
T2 sequence (Q9UKS7 1-500 isoform Q9UKS7-2): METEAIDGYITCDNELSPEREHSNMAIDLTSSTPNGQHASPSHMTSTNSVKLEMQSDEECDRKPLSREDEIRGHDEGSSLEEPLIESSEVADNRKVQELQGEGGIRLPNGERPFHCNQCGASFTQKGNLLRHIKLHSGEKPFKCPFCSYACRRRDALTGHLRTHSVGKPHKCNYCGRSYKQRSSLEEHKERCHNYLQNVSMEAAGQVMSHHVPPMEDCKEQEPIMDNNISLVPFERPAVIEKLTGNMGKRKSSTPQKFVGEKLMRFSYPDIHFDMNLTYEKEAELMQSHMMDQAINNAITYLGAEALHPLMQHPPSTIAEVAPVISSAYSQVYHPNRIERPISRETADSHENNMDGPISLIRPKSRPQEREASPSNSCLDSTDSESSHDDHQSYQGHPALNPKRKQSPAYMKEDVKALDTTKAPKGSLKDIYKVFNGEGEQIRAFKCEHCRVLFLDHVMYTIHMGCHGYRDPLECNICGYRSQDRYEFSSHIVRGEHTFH
T2 sequence (Q96SW2 whole entry): as the sequence (Q96SW2 whole entry) above
T2 sequence (Q16531 whole entry partner): as the sequence (Q16531 whole entry partner) above

Take `C[C@H]1CC[C@H](NCc2ccc3c(c2)CN(C2CCC(=O)NC2=O)C3=O)CC1` (stereo partly drawn) [Example 47]: the Dmax was 41% in test [1] and 82% in test [2]. For the same molecule, the DC50 in test [1] was found to be 0.189 µM; in test [2] (HiBiT assay), 0.182 µM.

On to `O=C1CCC(N2Cc3cc(CN[C@H]4CCCC[C@H]4CO)ccc3C2=O)C(=O)N1` (stereo partly drawn) [Example 39, 3-(5-((((1S,2R)-2-(hydroxymethyl)cyclohexyl)amino)methyl)-1-oxoisoindolin-2-yl)piperidine-2,6-dione], for which the DC50 is greater than 10 µM in test [1] and 4.1 µM in test [2] (HiBiT assay). In addition, the Dmax in test [2] is 37%.

Consider `O=C1CCC(N2Cc3cc(CN[C@H]4CCCC[C@@H]4O)ccc3C2=O)C(=O)N1` (stereo partly drawn) [Example 38, 3-(5-((((1S,2S)-2-hydroxycyclohexyl)amino)methyl)-1-oxoisoindolin-2-yl)piperidine-2,6-dione], for which the DC50 was greater than 10 µM in test [1] and 3.3 µM in test [2] (HiBiT assay). The Dmax in test [2] came out at 21%.

As for `O=C1CCC(N2Cc3cc(CNC4CCN(Cc5ccccc5)C(=O)C4)ccc3C2=O)C(=O)N1` (stereo not drawn) [Example 62], in test [1], the “IKZF1 Dmax (maximum degradation at the highest concentration tested)” value was determined as 27% and the DC50 was found to be 0.886 µM. Besides, in test [2] (HiBiT assay), the “IKZF2 Dmax (maximum degradation at the highest concentration tested)” value was 27% and the DC50 came to 1.7 µM.

On to `CC1(C)CCCC(NCc2ccc3c(c2)CN(C2CCC(=O)NC2=O)C3=O)C1` (stereo not drawn) [Example 131], for which the Dmax in test [1] came to 69%; in test [2], 92%. The DC50 stood at 0.091 µM in test [1] and 0.062 µM in test [2] (HiBiT assay).

As to `O=C1CCC(N2Cc3cc(CN[C@@H]4CCCC[C@H]4OCc4ccccc4)ccc3C2=O)C(=O)N1` (stereo partly drawn) [Example 126], the Dmax in test [1] turned out to be 53%; in test [2], 93%. Moreover, the DC50 in test [1] worked out at 0.151 µM; in test [2] (HiBiT assay), 0.079 µM.

As for `O=C1CCC(N2Cc3cc(CN[C@H](CO)Cc4ccccc4)ccc3C2=O)C(=O)N1` (stereo partly drawn) [Example 56], the Dmax in test [1] was determined as 23%; in test [2], 22%. In addition, the results for the DC50 in test [1] and in test [2] (HiBiT assay) were 0.222 µM and 0.525 µM, respectively.

With `CC1CCC(C)(NCc2ccc3c(c2)CN(C2CCC(=O)NC2=O)C3=O)CC1` (stereo not drawn) [Example 147], the Dmax in test [1] worked out at 28%; in test [2], 87%. The DC50 was found to be 0.155 µM in test [1] and 0.087 µM in test [2] (HiBiT assay).

Take `O=C1CCC(N2Cc3cc(CN[C@H]4CC5CCC4CC5)ccc3C2=O)C(=O)N1` (stereo partly drawn) [Example 95, 3-(5-((((S)-bicyclo[2.2.2]octan-2-yl)amino)methyl)-1-oxoisoindolin-2-yl)piperidine-2,6-dione]: the DC50 in test [1] is greater than 10 µM; in test [2] (HiBiT assay) it was 0.361 µM. For the same molecule, the Dmax in test [2] turned out to be 49%.

Take `C[C@H](c1ccccc1)N1CCC[C@@H](NCc2ccc3c(c2)CN(C2CCC(=O)NC2=O)C3=O)C1` (stereo partly drawn) [Example 28, 3-(1-oxo-5-((((R)-1-((R)-1-phenylethyl)piperidin-3-yl)amino)methyl)isoindolin-2-yl)piperidine-2,6-dione]: the values for the Dmax in test [1] and in test [2] were 94% and 93%, respectively. Besides, the DC50 in test [1] is 0.005 µM; in test [2] (HiBiT assay), 0.029 µM.

Turning to `O=C1CCC(N2Cc3cc(CNC4CCC(F)(F)CC4)ccc3C2=O)C(=O)N1` (stereo not drawn) [Example 7, 3-(5-(((4,4-difluorocyclohexyl)amino)methyl)-1-oxoisoindolin-2-yl)piperidine-2,6-dione], the Dmax came to 70% in test [1] and 80% in test [2]. Moreover, the DC50 in test [1] is 0.053 µM; in test [2] (HiBiT assay), 0.104 µM.

Consider `O=C1CCC(N2Cc3cc(CNC4CCC(Cc5ccccc5)CC4)ccc3C2=O)C(=O)N1` (stereo not drawn) [Example 10, 3-(5-(((4-benzylcyclohexyl)amino)methyl)-1-oxoisoindolin-2-yl)piperidine-2,6-dione], for which the Dmax in test [1] came to 51%; in test [2], 80%. Moreover, the results for the DC50 in test [1] and in test [2] (HiBiT assay) were 0.121 µM and 0.117 µM, respectively.

On to `O=C1CCC(N2Cc3cc(CN[C@@H]4CCC[C@H](Cc5ccccc5Cl)C4)ccc3C2=O)C(=O)N1` (stereo partly drawn) [Example 137], for which the Dmax amounted to 95% in test [1] and 96% in test [2]. Besides, the DC50 is 0.003 µM in test [1] and 0.008 µM in test [2] (HiBiT assay).

As to `O=C1CCC(N2Cc3cc(CN[C@H]4CCCC[C@H]4OCc4ccccc4)ccc3C2=O)C(=O)N1` (stereo partly drawn) [Example 120], the Dmax in test [1] and in test [2] was 97% in each case. For the same molecule, the DC50 in test [1] is 0.002 µM; in test [2] (HiBiT assay) it was 0.003 µM.

Take `O=C1CCC(N2Cc3cc(CN[C@@H]4CCCN(Cc5ccncc5)C4)ccc3C2=O)C(=O)N1` (stereo partly drawn) [Example 125, 3-(1-oxo-5-((((R)-1-(pyridin-4-ylmethyl)piperidin-3-yl)amino)methyl)isoindolin-2-yl)piperidine-2,6-dione]: the values for the Dmax in test [1] and in test [2] were 95% and 86%, respectively. Further, the values for the DC50 in test [1] and in test [2] (HiBiT assay) were 0.124 µM and 0.427 µM, respectively.

As for `O=C1CCC(N2Cc3cc(CN[C@H]4CCc5ccccc5C4)ccc3C2=O)C(=O)N1` (stereo partly drawn) [Example 13, 3-(1-oxo-5-((((S)-1,2,3,4-tetrahydronaphthalen-2-yl)amino)methyl)isoindolin-2-yl)piperidine-2,6-dione], the Dmax came out at 48% in test [1] and 73% in test [2]. Also, the DC50 turned out to be 0.031 µM in test [1] and 0.023 µM in test [2] (HiBiT assay).

On to `O=C1CCC(N2Cc3cc(CNC4CCC5(CCC5)CC4)ccc3C2=O)C(=O)N1` (stereo not drawn) [Example 59], for which the Dmax in test [1] turned out to be 62%; in test [2] it was 74%. In addition, the DC50 in test [1] was found to be 0.05 µM; in test [2] (HiBiT assay), 0.055 µM.

For the molecule `O=C1CCC(N2Cc3cc(CN[C@@H]4C[C@@H]5CC[C@H]4C5)ccc3C2=O)C(=O)N1` (stereo partly drawn) [Example 71, 3-(5-((((1S,2R,4R)-bicyclo[2.2.1]heptan-2-yl)amino)methyl)-1-oxoisoindolin-2-yl)piperidine-2,6-dione], the figures for the Dmax in test [1] and in test [2] were 33% and 36%, respectively. The DC50 in test [1] worked out at 0.17 µM; in test [2] (HiBiT assay), 0.297 µM.

For the molecule `O=C1CCC(N2Cc3cc(CN[C@@H]4CCc5ccccc5C4)ccc3C2=O)C(=O)N1` (stereo partly drawn) [Example 14, 3-(1-oxo-5-((((R)-1,2,3,4-tetrahydronaphthalen-2-yl)amino)methyl)isoindolin-2-yl)piperidine-2,6-dione], the values for the Dmax in test [1] and in test [2] were 35% and 43%, respectively. Moreover, the DC50 in test [1] turned out to be 0.023 µM; in test [2] (HiBiT assay), 0.048 µM.

Take `N#C[C@H]1CC[C@@H](NCc2ccc3c(c2)CN(C2CCC(=O)NC2=O)C3=O)CC1` (stereo partly drawn) [Example 87]: the Dmax in test [1] turned out to be 86%; in test [2], 89%. Further, the DC50 in test [1] is 0.084 µM; in test [2] (HiBiT assay), 0.182 µM.

As for `CC[C@H]1CCCC[C@H]1NCc1ccc2c(c1)CN(C1CCC(=O)NC1=O)C2=O` (stereo partly drawn) [Example 148], the Dmax in test [1] came out at 38%; in test [2], 43%. Also, the DC50 in test [1] was 0.119 µM; in test [2] (HiBiT assay) it was 0.177 µM.

Consider `O=C1CCC(N2Cc3cc(CN[C@H]4CCC[C@@H](Cc5ccccc5)C4)ccc3C2=O)C(=O)N1` (stereo partly drawn) [Example 116], for which the Dmax was 82% in test [1] and 81% in test [2]. Also, the DC50 stood at 0.023 µM in test [1] and 0.068 µM in test [2] (HiBiT assay).

Consider `O=C1CCC(N2Cc3cc(CN[C@@H]4CCCN(Cc5cccc(Cl)c5)C4)ccc3C2=O)C(=O)N1` (stereo partly drawn) [Example 99, 3-(5-((((R)-1-(3-chlorobenzyl)piperidin-3-yl)amino)methyl)-1-oxoisoindolin-2-yl)piperidine-2,6-dione], for which the Dmax in test [1] and in test [2] was 97% throughout. The results for the DC50 in test [1] and in test [2] (HiBiT assay) were 0.002 µM and 0.011 µM, respectively.

Regarding `O=C1CCC(N2Cc3cc(CNC4CCC5(CCc6ccccc65)CC4)ccc3C2=O)C(=O)N1` (stereo not drawn) [Example 114, 3-(5-(((2′,3′-dihydrospiro[cyclohexane-1,1′-inden]-4-yl)amino)methyl)-1-oxoisoindolin-2-yl)piperidine-2,6-dione], the Dmax amounted to 62% in test [1] and 78% in test [2]. Besides, the DC50 worked out at 0.052 µM in test [1] and 0.068 µM in test [2] (HiBiT assay).
